Results reported in PubChem BioAssay (NCI).
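These data come from cells grown in 96-well plates and exposed to compound for 48 hours at five concentrations. Abbreviation: GI50, concentration required for 50% inhibition of growth. TGI: concentration producing complete growth inhibition.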

How the values were obtained:
Assay in all cases: inhibition of tumour cell growth, NCI panel, 48 h
A549 NSCLC = system: A549 NSCLC
SW-620 colon = system: SW-620 colon
RPMI-8226 leukemia = system: RPMI-8226 leukemia
HL-60(TB) leukemia = system: HL-60(TB) leukemia
UACC-257 melanoma = system: UACC-257 melanoma
K-562 leukemia = system: K-562 leukemia
HS 578T breast = system: HS 578T breast
LOX IMVI melanoma = system: LOX IMVI melanoma
SN12C renal = system: SN12C renal
NCI-H226 lung = system: NCI-H226 lung
MDA-MB-231 breast = system: MDA-MB-231 breast
MOLT-4 leukemia = system: MOLT-4 leukemia
IGROV1 ovarian = system: IGROV1 ovarian
BT-549 breast = system: BT-549 breast
OVCAR-8 ovarian = system: OVCAR-8 ovarian
M14 melanoma = system: M14 melanoma
NCI/ADR-RES ovarian = system: NCI/ADR-RES ovarian
SK-MEL-28 melanoma = system: SK-MEL-28 melanoma
HT29 colon = system: HT29 colon
OVCAR-5 ovarian = system: OVCAR-5 ovarian
TK-10 renal = system: TK-10 renal
OVCAR-3 ovarian = system: OVCAR-3 ovarian
UO-31 renal = system: UO-31 renal
NCI-H522 lung = system: NCI-H522 lung
RXF 393 renal = system: RXF 393 renal
T-47D breast = system: T-47D breast
MALME-3M melanoma = system: MALME-3M melanoma
786-0 renal = system: 786-0 renal
MDA-MB-435 = system: MDA-MB-435
HCT-116 colon = system: HCT-116 colon
COLO 205 colon = system: COLO 205 colon
MCF7 breast = system: MCF7 breast
A498 renal = system: A498 renal
HOP-62 NSCLC = system: HOP-62 NSCLC
NCI-H23 lung = system: NCI-H23 lung
KM12 colon = system: KM12 colon
HCT-15 colon = system: HCT-15 colon
SK-OV-3 ovarian = system: SK-OV-3 ovarian
UACC-62 melanoma = system: UACC-62 melanoma
HCC-2998 colon = system: HCC-2998 colon
SK-MEL-2 melanoma = system: SK-MEL-2 melanoma
CAKI-1 renal = system: CAKI-1 renal
SK-MEL-5 melanoma = system: SK-MEL-5 melanoma
HOP-92 NSCLC = system: HOP-92 NSCLC
OVCAR-4 ovarian = system: OVCAR-4 ovarian
ACHN renal = system: ACHN renal
SF-268 CNS = system: SF-268 CNS
PC-3 prostate = system: PC-3 prostate
DU-145 prostate = system: DU-145 prostate
SF-539 CNS = system: SF-539 CNS
CCRF-CEM leukemia = system: CCRF-CEM leukemia
U251 CNS = system: U251 CNS
SNB-75 CNS = system: SNB-75 CNS
SNB-19 CNS = system: SNB-19 CNS
NCI-H460 lung = system: NCI-H460 lung

O=c1c2ccc3cccc4c(=O)c5ccc6cccc1c6c5-c2c34
GI50 (A549 NSCLC): > 50 µM | TGI (A549 NSCLC): > 50 µM | GI50 (SW-620 colon): > 50 µM | TGI (SW-620 colon): > 50 µM | GI50 (RPMI-8226 leukemia): > 50 µM | TGI (RPMI-8226 leukemia): > 50 µM | GI50 (HL-60(TB) leukemia): > 50 µM | TGI (HL-60(TB) leukemia): > 50 µM | GI50 (UACC-257 melanoma): > 50 µM | TGI (UACC-257 melanoma): > 50 µM | GI50 (K-562 leukemia): > 50 µM | TGI (K-562 leukemia): > 50 µM | GI50 (HS 578T breast): > 50 µM | TGI (HS 578T breast): > 50 µM | GI50 (LOX IMVI melanoma): > 50 µM | TGI (LOX IMVI melanoma): > 50 µM | GI50 (SN12C renal): > 50 µM | TGI (SN12C renal): > 50 µM | GI50 (NCI-H226 lung): > 50 µM | TGI (NCI-H226 lung): > 50 µM | GI50 (MDA-MB-231 breast): > 50 µM | TGI (MDA-MB-231 breast): > 50 µM | GI50 (MOLT-4 leukemia): > 50 µM | TGI (MOLT-4 leukemia): > 50 µM | GI50 (IGROV1 ovarian): > 50 µM | TGI (IGROV1 ovarian): > 50 µM | GI50 (BT-549 breast): > 50 µM | TGI (BT-549 breast): > 50 µM | GI50 (OVCAR-8 ovarian): > 50 µM | TGI (OVCAR-8 ovarian): > 50 µM | GI50 (M14 melanoma): > 50 µM | TGI (M14 melanoma): > 50 µM | GI50 (NCI/ADR-RES ovarian): > 50 µM | TGI (NCI/ADR-RES ovarian): > 50 µM | GI50 (SK-MEL-28 melanoma): > 50 µM | TGI (SK-MEL-28 melanoma): > 50 µM | GI50 (HT29 colon): > 50 µM | TGI (HT29 colon): > 50 µM | GI50 (OVCAR-5 ovarian): > 50 µM | TGI (OVCAR-5 ovarian): > 50 µM | GI50 (TK-10 renal): > 50 µM | TGI (TK-10 renal): > 50 µM | GI50 (OVCAR-3 ovarian): > 50 µM | TGI (OVCAR-3 ovarian): > 50 µM | GI50 (UO-31 renal): > 50 µM | TGI (UO-31 renal): > 50 µM | GI50 (NCI-H522 lung): > 50 µM | TGI (NCI-H522 lung): > 50 µM | GI50 (RXF 393 renal): > 50 µM | TGI (RXF 393 renal): > 50 µM | GI50 (T-47D breast): > 50 µM | TGI (T-47D breast): > 50 µM | GI50 (MALME-3M melanoma): > 50 µM | TGI (MALME-3M melanoma): > 50 µM | GI50 (786-0 renal): > 50 µM | TGI (786-0 renal): > 50 µM | GI50 (MDA-MB-435): > 50 µM | TGI (MDA-MB-435): > 50 µM | GI50 (HCT-116 colon): > 50 µM | TGI (HCT-116 colon): > 50 µM | GI50 (COLO 205 colon): > 50 µM | TGI (COLO 205 colon): > 50 µM | GI50 (MCF7 breast): > 50 µM | TGI (MCF7 breast): > 50 µM | GI50 (A498 renal): > 50 µM | TGI (A498 renal): > 50 µM | GI50 (HOP-62 NSCLC): > 50 µM | TGI (HOP-62 NSCLC): > 50 µM | GI50 (NCI-H23 lung): > 50 µM | TGI (NCI-H23 lung): > 50 µM | GI50 (KM12 colon): > 50 µM | TGI (KM12 colon): > 50 µM | GI50 (HCT-15 colon): > 50 µM | TGI (HCT-15 colon): > 50 µM | GI50 (SK-OV-3 ovarian): > 50 µM | TGI (SK-OV-3 ovarian): > 50 µM | GI50 (UACC-62 melanoma): > 50 µM | TGI (UACC-62 melanoma): > 50 µM | GI50 (HCC-2998 colon): > 50 µM | TGI (HCC-2998 colon): > 50 µM | GI50 (SK-MEL-2 melanoma): > 50 µM | TGI (SK-MEL-2 melanoma): > 50 µM | GI50 (CAKI-1 renal): > 50 µM | TGI (CAKI-1 renal): > 50 µM | GI50 (SK-MEL-5 melanoma): > 50 µM | TGI (SK-MEL-5 melanoma): > 50 µM | GI50 (HOP-92 NSCLC): > 50 µM | TGI (HOP-92 NSCLC): > 50 µM | GI50 (OVCAR-4 ovarian): > 50 µM | TGI (OVCAR-4 ovarian): > 50 µM | GI50 (ACHN renal): > 50 µM | TGI (ACHN renal): > 50 µM | GI50 (SF-268 CNS): > 50 µM | TGI (SF-268 CNS): > 50 µM | GI50 (PC-3 prostate): > 50 µM | TGI (PC-3 prostate): > 50 µM | GI50 (DU-145 prostate): > 50 µM | TGI (DU-145 prostate): > 50 µM | GI50 (SF-539 CNS): > 50 µM | TGI (SF-539 CNS): > 50 µM | GI50 (CCRF-CEM leukemia): > 50 µM | TGI (CCRF-CEM leukemia): > 50 µM | GI50 (U251 CNS): > 50 µM | TGI (U251 CNS): > 50 µM | GI50 (SNB-75 CNS): > 50 µM | TGI (SNB-75 CNS): > 50 µM | GI50 (SNB-19 CNS): > 50 µM | TGI (SNB-19 CNS): > 50 µM | GI50 (NCI-H460 lung): > 50 µM | TGI (NCI-H460 lung): > 50 µM
